According to patent US20110171666A1, “PEPTIDE-LIPID CONSTRUCTS AND THEIR USE IN DIAGNOSTIC AND THERAPEUTIC APPLICATIONS” (priority 2007, published 2011):
Groups on a side chain read outwards from the residue. Primed or numbered codes have the meaning given here. No end group written: not given here. *: point of attachment. DOPE = CCCCCCCC/C=C\CCCCCCCC(=O)OC[C@H](COP(=O)(O)OCCN*)OC(=O)CCCCCCC/C=C\CCCCCCCC; S1 PEG = not defined here; PEG6′ = not defined here; Mal = not defined here; Mal″ = maleimide; βAla = NCCC(=O)O

What was measured:
[1] = system: Miltenberger Antibody Positive Panel (polyclonal sera and monoclonal antibodies); assay: Reactivity of construct-modified RBCs against the Miltenberger Antibody Positive Panel; assay type: cell-based, human; design: key: 0 or ‘−’=no agglutination; 0 or ‘−’=no agglutination; 1+ or 3=very weak agglutination; 1+ or 3=very weak agglutination; 2+ or 5=weak agglutination; 2+ or 5=weak agglutination; 3+ or 8=moderate strong agglutination; 3+ or 8=moderate strong agglutination; 4+ or 10/12=strong agglutination; 4+ or 10/12=strong agglutination; 4+ or 10/12=strong agglutination
Description: Red blood cells are modified by mixing 1 part by volume of washed packed red blood cells with 1 part by volume of peptide-lipid construct dispersed at a concentration of 10 to 1000 μg/ml in cell media (Celpresol™).
(§1) The suspensions are either: • 1. incubated for 2 hours at 37° C. before being washed and suspended in a cell medium for serological analysis at a concentration of 0.8 to 3% (Method 1); or • 2. incubated for 3 to 4 hours at room temperature (circa 25° C.) followed by 18 hours at 4° C. before being washed and suspended in a cell medium for serological analysis at a concentration of 0.8 to 3% (Method 2).
(§2) Serological reactions are graded or scored by either of two established systems (0 or ‘−’=no agglutination, 1+ or 3=very weak agglutination, 2+ or 5=weak agglutination, 3+ or 8=moderate strong agglutination, 4+ or 10/12=strong agglutination)
(§3) Serological platforms used are Tube (addition of reagents and reactants into plastic or glass serology tubes and after appropriate incubations, washing and centrifugation observing reactions macroscopically by eye and a 10× magnification eyepiece and scoring) and BioVue™ (addition of reactants into cassettes containing beads (including some reactants) and after appropriate incubations and centrifugation observing the reaction patterns traped within the Gel matrix). BioVue is the serological column agglutination platform of Ortho-Clinical Diagnostics.

[2] = system: sera reactive with modified RBCs; assay: Neutralisation of reactive sera with peptide and retest against modified RBCs (BioVue cards); assay type: cell-based, human; design: key: 0 or ‘−’=no agglutination; 0 or ‘−’=no agglutination; 1+ or 3=very weak agglutination; 1+ or 3=very weak agglutination; 2+ or 5=weak agglutination; 2+ or 5=weak agglutination; 3+ or 8=moderate strong agglutination; 3+ or 8=moderate strong agglutination; 4+ or 10/12=strong agglutination; 4+ or 10/12=strong agglutination; 4+ or 10/12=strong agglutination; settings: for reactivity score, serum + peptide: RBCs modified at 500 μg/ml (Method 1)
Description: as §1, §2, §3
Where false positives were observed these could be substantially eliminated by pre-treatment of the sample of serum with the peptide of the peptide-lipid constructs (Table 10 and 11).

[3] = MUT constructs, μg/ml used: M1 500, M2 500, M3 1000, M13 250, M21 200
[4] = MUR constructs, RBCs modified at 100 ug/ml

Substance	reactivity score of modified RBCs vs 2 T217 [1, 3]	reactivity score of modified RBCs vs 3 T165 [1, 3]	reactivity score of modified RBCs vs 4 T7202 [1, 3]	reactivity score of modified RBCs vs 6 T6025 [1, 3]	reactivity score of modified RBCs vs 7 T8445 [1, 3]	reactivity score of modified RBCs vs 8 T5896 [1, 3]	reactivity score of modified RBCs vs 9 MIII monoclonal antibody [1, 3]	reactivity score of modified RBCs vs 10 Mia monoclonal antibody [1, 3]	reactivity score of modified RBCs vs 11 Mur monoclonal antibody [1, 3]	reactivity score of modified RBCs vs 12 Gam monoclonal antibody [1, 3]	reactivity score of modified RBCs vs 2 T217 [1, 4]	reactivity score of modified RBCs vs 3 T165 [1, 4]	reactivity score of modified RBCs vs 4 T7202 [1, 4]	reactivity score of modified RBCs vs 6 T6025 [1, 4]	reactivity score of modified RBCs vs 7 T8445 [1, 4]	reactivity score of modified RBCs vs 8 T5896 [1, 4]	reactivity score of modified RBCs vs 9 MIII monoclonal antibody [1, 4]	reactivity score of modified RBCs vs 10 Mia monoclonal antibody [1, 4]	reactivity score of modified RBCs vs 11 Mur monoclonal antibody [1, 4]	reactivity score of modified RBCs vs 12 Gam monoclonal antibody [1, 4]	further results
DOPE-PEG6-βAla-Mal-13MUTK (SSQTNDKHKRDTYC([Mal-βAla-PEG6′-DOPE]); reading uncertain; also: printed as DOPE-PEG6-βAla-Mal-13MUTK) [M13]	8	0	8	8	0	3	0	0	0	0	–	–	–	–	–	–	–	–	–	–	reactivity score of modified RBCs vs 13 BoxH [1, 3]: 8; reactivity score, serum alone ([2]; serum #3, RBCs modified at 500 μg/ml (Method 1)): 8; reactivity score, serum + peptide ([2]; serum #3 neutralised with peptide SSQTNDKHKRDTY): 0; reactivity score, serum alone ([2]; serum #34, RBCs modified at 500 μg/ml (Method 1)): 8; reactivity score, serum + peptide ([2]; serum #34 neutralised with peptide SSQTNDKHKRDTY): 0; reactivity score, serum alone ([2]; serum #37, RBCs modified at 500 μg/ml (Method 1)): 8; reactivity score, serum + peptide ([2]; serum #37 neutralised with peptide SSQTNDKHKRDTY): 0; reactivity score, serum alone ([2]; serum #42, RBCs modified at 500 μg/ml (Method 1)): 8; reactivity score, serum + peptide ([2]; serum #42 neutralised with peptide SSQTNDKHKRDTY): 0
DOPE-PEG6-βAla-Mal-21MUTK (SQTNDKHKRDC([Mal″-βAla-PEG6′-DOPE])) [M21]	0	8	0	8	0	0	0	0	0	3	–	–	–	–	–	–	–	–	–	–	reactivity score of modified RBCs vs 15 TAP2 [1, 3]: 5
DOPE-PEG6-βAla-Mal-18Mur (PAHTANEVC([Mal″-βAla-PEG6′-DOPE])) [M18]	–	–	–	–	–	–	–	–	–	–	0	10	0	10	8	0	0	0	0	0	–
M16: DOPE peptide-lipid construct, Mur peptide ThrTyrProAlaHisThrAlaAsnGluVal with terminal Cys, S1 PEG (Table 7) (TYPAHTANEVC([S1 PEG-DOPE]); reading uncertain)	–	–	–	–	–	–	–	–	–	–	0	10	5	5	12	0	0	0	0	0	reactivity score of modified RBCs vs 13 BoxH [1, 4]: 0
